Read-outs that look alike come from different tables or passages of the source.
Columns and labels:
[1] = molecular target: T1, alcohol dehydrogenase from L. brevis (Levilactobacillus brevis, UniProt Q84EX5); experiment: biochemical; type: biochemical; conditions: for Activity: 0.19 mM NADPH, pH 7.0, purified enzyme diluted 1:10
T1 sequence (Q84EX5 2-252): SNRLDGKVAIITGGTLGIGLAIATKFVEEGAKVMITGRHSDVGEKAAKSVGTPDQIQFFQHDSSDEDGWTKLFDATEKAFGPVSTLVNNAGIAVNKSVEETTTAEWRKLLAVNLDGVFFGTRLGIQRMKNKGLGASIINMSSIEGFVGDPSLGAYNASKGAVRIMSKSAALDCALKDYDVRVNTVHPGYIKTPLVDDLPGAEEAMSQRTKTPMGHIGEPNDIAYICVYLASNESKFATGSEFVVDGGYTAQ
Procedure: A series of other ketones and keto esters were used instead of acetophenone and it was tested whether these can be reduced by enzyme catalysis.
The following test mixture was used for this:
970 μl triethanolamine buffer (50 mM; pH 7.0, containing 10 mM keto compound)
20 μl NADPH (0.19 mM in the test)
Some of the ketones were also tested at a concentration of 1 mM in order to verify a possible substrate inhibition at 10 mM.

[2] = Temperature optimum of enzyme activity; type: biochemical
[3] = Temperature stability of the alcohol dehydrogenase (30 min at temperature, measured at 30° C.); type: physicochemical
Procedure: The temperature stability in the range of 25 to 70° C. was determined in an analogous manner to that described under A. The homogeneous enzyme solution was subjected for 30 min to the recited temperatures and subsequently measured directly at 30° C. with the above test mixture. […] In contrast the ADH from L. kefir is only stable up to 40° C. with a maximum at 37° C., afterwards the activity decreases rapidly. The maximum for this enzyme is at 37° C.

[4] = relative to acetophenone = 100, 10 mM keto compound, read-out: Relative act.
[5] = relative to acetophenone = 100, 10 mM keto compound

| Molecule | Activity ([1]; 10 mM keto compound) | activity at 10000 µM ([1]; read-out: Relative act.) | activity at 10000 µM [1, 4] | other results |
| --- | --- | --- | --- | --- |
| C(CCOCC1CO1)COCC1CO1 (stereo not drawn) [1,4-butanediol-diglyceridyl ether] | 0.77 U/ml | 24% | – | – |
| CC(=O)CC(C)=O [2,4-pentanedione] | 4.22 U/ml | 130% | – | – |
| CC(=O)c1ccccc1Cl [2-Cl-acetophenone] | 0.33 U/ml | 10% | – | – |
| CC1CCCCC1=O (stereo not drawn) [2-methylcyclohexanone] | 6.25 U/ml | – | 192% | – |
| CCOC(=O)C(=O)CCc1ccccc1 [2-oxo-4-phenylbutyric acid ethyl ester] | 4.60 U/ml | – | – | Relative act. [1, 5]: 141% |
| CC(=O)c1cccc(Cl)c1 [3-Cl-acetophenone] | 4.80 U/ml | 147% | – | – |
| CCOC(=O)CC(=O)CC [3-oxo-n-valeric acid ethyl ester] | 2.29 U/ml | – | 70% | – |
| CCC(=O)CC(=O)OC [3-oxo-n-valeric acid methyl ester] | 2.26 U/ml | – | 69% | – |
| CCOC(=O)CC(=O)CCl [4-Cl-acetic acid ethyl ester] | 3.04 U/ml | 93% | – | – |
| CC(=O)c1ccc(Cl)cc1 [4-Cl-acetophenone] | 6.63 U/ml | 203% | – | – |
| CCOC(=O)CCCC(C)=O [4-acetylbutyric acid ethyl ester] | 2.84 U/ml | – | 87% | – |
| CC(=O)CCCC(=O)O [4-acetylbutyric acid] | 0.32 U/ml | – | 10% | – |
| CCc1ccc(C(C)=O)cc1 [4-ethylacetophenone] | 2.13 U/ml | 65% | – | – |
| CCCCOC(C)=O [acetic acid butyl ester] | 2.07 U/ml | 64% | – | – |
| CC(=O)CC(=O)OCc1ccccc1 [aceto acetic acid benzyl ester] | 4.11 U/ml | – | 126% | – |
| CCOC(=O)CC(C)=O [aceto acetic acid ethyl ester] | 3.54 U/ml | 109% | – | – |
| COC(=O)CC(C)=O [aceto acetic acid methyl ester] | 3.81 U/ml | 117% | – | – |
| O=Cc1ccccc1 [benzaldehyde] | 0.30 U/ml | 9% | – | – |

| Molecule | Activity ([1]; 10 mM keto compound) | activity at 10000 µM ([1]; read-out: Relative act.) | activity at 10000 µM [1, 4] | other results |
| --- | --- | --- | --- | --- |
| CCOC(=O)CC(=O)c1ccccc1 [benzoyl acetic acid ethyl ester] | 1.14 U/ml | – | 35% | – |
| CC(=O)CCc1ccccc1 [benzylacetone] | 3.24 U/ml | – | – | activity at 10000 µM ([1]; read-out: Relative act., relative to acetophenone = 100, 10 mM keto compound): 99% |
| CC(=O)Cc1ccccc1 [benzylmethyl ketone] | 0.36 U/ml | 11% | – | – |
| CCOC(=O)CC1CCCCC1=O (stereo not drawn) [cyclohexanone-2-acetic acid ethyl ester] | 0.14 U/ml | – | 4% | – |
| CCOC(=O)C1CCCCC1=O (stereo not drawn) [cyclohexanone-2-carboxylic acid ethyl ester] | 0.41 U/ml | – | 13% | – |
| CCOC(=O)C(C)=O [ethyl pyruvate] | 8.10 U/ml | – | 248% | – |
| CCOC(=O)C(C)C(C)=O (stereo not drawn) [ethyl-2-methylacetoacetate] | 0.84 U/ml | – | 26% | – |
| CCOC(=O)C(=O)CCc1ccccc1 [ethyl-2-oxo-4-phenyl butyrate] | 0.40 U/ml | – | – | Relative act. [1, 5]: 12% |
| CCCC(=O)CC(=O)OCC [ethylbutyryl acetate] | 2.21 U/ml | – | 68% | – |
| CC(=O)CO [hydroxyacetone] | 0.74 U/ml | – | 23% | – |
| CCOC(=O)CC(=O)C(C)C [isobutyrylacetic acid ethyl ester] | 1.93 U/ml | – | 59% | – |
| CCOC(=O)CCC(C)=O [laevulinic acid ethyl ester] | 2.99 U/ml | – | 92% | – |
| COC(=O)C(C)=O [methyl pyruvate] | 3.22 U/ml | – | 98% | – |
| CC(=O)c1cccc2ccccc12 [methyl-1-naphthyl ketone] | 1.21 U/ml | – | 37% | – |
| CCC(=O)c1ccccc1 [propiophenone] | 0.55 U/ml | 17% | – | – |
| CCOC(=O)C(F)(F)F [trifluoroacetic acid ethyl ester] | 0.50 U/ml | 15% | – | – |
| alcohol dehydrogenase from Lactobacillus kefir: NADP-dependent R-alcohol dehydrogenase from Lactobacillus kefir (DE 40 14 573 C1), comparison enzyme [reference compound] | – | – | – | optimal test temperature (activity maximum) [2]: 37 °C; act. (temperature optimum) ([2]; test temperature 20° C.): 28.0 U/ml; act. (temperature optimum) ([2]; test temperature 25° C.): 28.2 U/ml; act. (temperature optimum) ([2]; test temperature 30° C.): 35.2 U/ml; act. (temperature optimum) ([2]; test temperature 35° C.): 36.2 U/ml; act. (temperature optimum) ([2]; test temperature 40° C.): 34.4 U/ml; act. (temperature optimum) ([2]; test temperature 45° C.): 35.4 U/ml; act. (temperature optimum) ([2]; test temperature 50° C.): 26.0 U/ml; act. (temperature optimum) ([2]; test temperature 55° C.): 3.0 U/ml; act. (temperature optimum) ([2]; test temperature 60° C.): 0 U/ml; temperature at which the enzyme is inactivated by 50% (thermal deactivation) [3]: 45 °C; temperature of maximum stability ([3]; 30 min): 37 °C; temperature range in which the enzyme is stable ([3]; 30 min): up to 40 °C; act. (temperature stability) ([3]; 30 min at 25° C.): 36.5 U/ml; act. (temperature stability) ([3]; 30 min at 30° C.): 30.2 U/ml; act. (temperature stability) ([3]; 30 min at 37° C.): 35.8 U/ml; act. (temperature stability) ([3]; 30 min at 40° C.): 32 U/ml; act. (temperature stability) ([3]; 30 min at 45° C.): 26.2 U/ml; act. (temperature stability) ([3]; 30 min at 50° C.): 2.4 U/ml; act. (temperature stability) ([3]; 30 min at 55° C.): 0 U/ml |
| ketovaleric acid | 0.27 U/ml | – | – | Relative act. [1, 5]: 8% |

Source: patent US6037158A, “Alcohol dehydrogenase and its use for the enzymatic production of chiral hydroxy compounds” (priority 1996, dated 2000)
